Values of other authors in patent US7351424B2, “Enhanced purity trans-lutein-ester compositions and methods of making same” (Bio Lut S.A. de C.V., priority 2004, dated 2008).

Settings: human, in vivo

bioavailability: even better than free lutein
Substance: lutein esters
